Data taken from a compilation of properties of binary mixtures (doi:10.1021/je100113r).

Test: xn = mol fraction of the nth substance listed
Details: 300 K, 101 kPa

electrical conductivity (x2 = 0.201) | electrical conductivity (x2 = 0.302) | electrical conductivity (x2 = 0.502) | electrical conductivity (x2 = 0.603) | electrical conductivity (x2 = 0.802) | electrical conductivity (x2 = 0.198) | electrical conductivity (x2 = 0.498) | electrical conductivity (x2 = 0.598) | electrical conductivity (x2 = 0.503) | SMILES
0.0004 S/m | 0.0004 S/m | 0.0004 S/m | 0.0004 S/m | 0.0004 S/m |  |  |  |  | CCCCCCCCCCCCCCCC[P+](CCCC)(CCCC)CCCC.[Br-] + O
 |  |  |  |  | 0.0003 S/m | 0.0003 S/m | 0.0004 S/m |  | CCCCCCCCCCCCCCCC[P+](c1ccccc1)(c1ccccc1)c1ccccc1.[Br-] + O
 |  |  | 0.0006 S/m |  |  |  |  | 0.002 S/m | [Br-].[PH3+]CCCCCCCCCCCCCC(c1ccccc1)(c1ccccc1)c1ccccc1 + O
